Drawing on PubChem BioAssay (NCI), this text covers TGI for six compounds.

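Cultured in 96-well plates, cells were exposed to test compound for 48 hours across five concentrations. TGI denotes the concentration required for complete inhibition of growth.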 Some results are limits rather than exact numbers.

Test systems include ACHN renal; CAKI-1 renal; HOP-62 NSCLC; HOP-92 NSCLC; HS 578T breast; IGROV1 ovarian; K-562 leukemia; MDA-MB-231 breast; MDA-N; NCI-H522 lung; PC-3 prostate; RPMI-8226 leukemia; SF-295 CNS; SF-539 CNS; SK-MEL-5 melanoma; SK-OV-3 ovarian; SR leukemia; T-47D breast; UO-31 renal; CCRF-CEM leukemia.
Experiment in all cases: growth of human tumour cells (NCI), 48 h

Regarding `O=C1Nc2ccccc2C1=Nc1cccc2ncccc12`, the TGI with ACHN renal, in the assay on CAKI-1 renal, with HOP-62 NSCLC, with HOP-92 NSCLC, with HS 578T breast and in the assay with IGROV1 ovarian was greater than 100 µM throughout. The TGI in the assay on K-562 leukemia, in the assay with MDA-MB-231 breast, in the assay with MDA-N, with NCI-H522 lung, with PC-3 prostate and in the assay with RPMI-8226 leukemia was greater than 100 µM each time. Besides, the TGI in the assay with SF-295 CNS is greater than 100 µM; with SF-539 CNS, greater than 100 µM; in the assay with SK-MEL-5 melanoma, greater than 100 µM; in the assay on SK-OV-3 ovarian, 99.7 µM; in the assay on SR leukemia it was greater than 100 µM; with T-47D breast, greater than 100 µM. The TGI in the assay with UO-31 renal was greater than 100 µM.
With `Cc1ccc(C2=Nn3c(nc4sc(C)c(C)c4c3=O)SC2)cc1`, the TGI in the assay with ACHN renal, in the assay on CAKI-1 renal, with HOP-62 NSCLC, in the assay on HOP-92 NSCLC, with HS 578T breast and with IGROV1 ovarian was greater than 100 µM in each case. The TGI in the assay with K-562 leukemia, with MDA-MB-231 breast, in the assay with MDA-N, in the assay with NCI-H522 lung, in the assay on PC-3 prostate and in the assay on RPMI-8226 leukemia was greater than 100 µM in each case. For the same compound, the TGI with SF-295 CNS, in the assay on SF-539 CNS, in the assay with SK-MEL-5 melanoma, in the assay on SK-OV-3 ovarian, in the assay on SR leukemia and with T-47D breast was greater than 100 µM throughout. The compound further displayed a TGI in the assay with UO-31 renal greater than 100 µM.
Turning to `COC(=O)C(Cc1ccccc1)NP(=O)(O)OCC1OC(n2cc(Br)c(=O)[nH]c2=O)CC1O` (centres undefined), the TGI in the assay on ACHN renal, with CCRF-CEM leukemia, in the assay with HOP-62 NSCLC, with HOP-92 NSCLC, in the assay with HS 578T breast and in the assay on IGROV1 ovarian was greater than 100 µM each time. The TGI in the assay on K-562 leukemia, with MDA-MB-231 breast, with MDA-N, in the assay with NCI-H522 lung, with PC-3 prostate and in the assay on SF-295 CNS was greater than 100 µM in each case. For the same compound, the TGI in the assay on SF-539 CNS, with SK-MEL-5 melanoma, in the assay on SK-OV-3 ovarian, in the assay on SR leukemia, in the assay with T-47D breast and in the assay with UO-31 renal was greater than 100 µM each time.
In the case of `Cc1c(C)c(C)c(-n2c(=O)n(C)c(=O)n2-n2c(=O)n(C)c(=O)n2-c2c(C)c(C)c(C)c(C)c2C)c(C)c1C`, the TGI in the assay on CAKI-1 renal, with HOP-92 NSCLC, in the assay with HS 578T breast, with IGROV1 ovarian, in the assay with K-562 leukemia and in the assay with MDA-MB-231 breast was greater than 100 µM in each case. Further, the TGI in the assay on MDA-N, in the assay with NCI-H522 lung, in the assay on PC-3 prostate, in the assay with RPMI-8226 leukemia, with SF-539 CNS and with SK-MEL-5 melanoma was greater than 100 µM each time. In addition, the TGI in the assay on SK-OV-3 ovarian, in the assay on SR leukemia, in the assay on T-47D breast and in the assay on UO-31 renal was greater than 100 µM in each case.
Take `CC1=NN(c2cccc(Cl)c2)C(=N/c2nc3ccccc3s2)/C1=C\c1ccc(Cl)cc1`: the TGI in the assay with ACHN renal turned out to be 58.9 µM; with CCRF-CEM leukemia it was 96.9 µM; with HOP-62 NSCLC, 54.5 µM; with HOP-92 NSCLC it was 36.1 µM; in the assay on HS 578T breast, 60 µM; in the assay on IGROV1 ovarian, 33.1 µM. For the same compound, the TGI with K-562 leukemia is greater than 100 µM; with MDA-MB-231 breast it was 49.2 µM; in the assay on MDA-N, 56.1 µM; in the assay on NCI-H522 lung it was 35.7 µM; with PC-3 prostate, 31.3 µM; in the assay with RPMI-8226 leukemia, greater than 100 µM. The TGI in the assay on SF-295 CNS was 61.6 µM; in the assay on SF-539 CNS it was 36.4 µM; in the assay on SK-MEL-5 melanoma it was 32 µM; in the assay with SK-OV-3 ovarian, 95.3 µM; with SR leukemia, 81 µM; with T-47D breast it was greater than 100 µM. Further, the TGI with UO-31 renal was 46.3 µM.
For `CN1CC[C@]23c4c5ccc(O)c4O[C@H]2C(O)CC[C@@]3(O)[C@H]1C5` (some centres undefined), the TGI in the assay with ACHN renal, in the assay with CAKI-1 renal, with HOP-62 NSCLC, with HOP-92 NSCLC, with HS 578T breast and with IGROV1 ovarian was greater than 100 µM in each case. The TGI with MDA-MB-231 breast, with MDA-N, in the assay on NCI-H522 lung, in the assay on PC-3 prostate, in the assay on RPMI-8226 leukemia and in the assay on SF-295 CNS was greater than 100 µM each time. For the same compound, the TGI with SF-539 CNS, in the assay on SK-MEL-5 melanoma, in the assay with SK-OV-3 ovarian, in the assay with SR leukemia, in the assay with T-47D breast and in the assay with UO-31 renal was greater than 100 µM each time.
